Source: paper PMC8587544, “Identification of Novel Antagonists Targeting Cannabinoid Receptor 2 Using a Multi-Step Virtual Screening Strategy” (Molecules, 2021)
Where two headings read alike, the source gives them in different places.

Columns and labels:
human CB2 receptor [1] = target: T1, human CB2 receptor (Homo sapiens, UniProt P34972); assay: Radioligand binding assays at human CB2 receptor ([3H]-CP55940); conditions: [3H]-CP55940 0.8 nM, 90 min, 30 °C, read-out: Binding Affinities pKi (converted)
T1 sequence (P34972 whole entry): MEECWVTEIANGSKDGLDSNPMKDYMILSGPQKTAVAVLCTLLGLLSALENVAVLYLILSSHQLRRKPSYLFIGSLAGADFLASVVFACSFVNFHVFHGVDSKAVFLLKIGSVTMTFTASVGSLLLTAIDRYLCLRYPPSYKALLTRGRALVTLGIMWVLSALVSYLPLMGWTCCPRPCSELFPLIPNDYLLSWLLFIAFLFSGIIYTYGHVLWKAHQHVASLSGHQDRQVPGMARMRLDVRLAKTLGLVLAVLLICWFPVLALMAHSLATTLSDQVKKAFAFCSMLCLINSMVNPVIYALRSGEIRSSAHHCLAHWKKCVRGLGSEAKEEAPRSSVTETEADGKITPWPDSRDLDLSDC
Protocol: The 15 compounds were purchased from J&K Scientific Ltd. (Shanghai, China). The radioligand binding assays and functional assays to CB2 receptor were performed by Pharmaron (Beijing) upon commission. In the CB2 receptor assays, [^3H]-CP55940 was used as the radioligand; the 15 compounds were tested in radioligand binding assays at human CB2 receptor ([^3H]-CP55940). The competition binding experiments of the test compounds at ten different concentrations and [^3H]-CP55940 (0.8 nM) against CB2 receptor (2 μg/well) were performed for 90 min at 30 °C in 500 μL of assay buffer (25 mM HEPES, 10 mM MgCl2, 1 mM CaCl2, 0.5% BSA, pH 7.4).

CB2 receptor = conditions: cited from earlier work; for Ki: pharmacophore training set, ChEMBL27 database; for pKi: CB2 receptor
human CB2 receptor [2] = target: T1, human CB2 receptor; assay: cAMP functional assay in Flpin-CHO-CB2 cells (antagonism of CP55940-mediated decrease in cAMP); format: cell-based
Protocol: Compounds 1, 3, 6, 7, 8, 12, and 15 were further evaluated by cAMP functional assays.
The CB2 receptor antagonistic activities of the 7 compounds were evaluated by investigating CB2-mediated cAMP production in Flpin-CHO-K1 cells functional assay. The Flpin-CHO-K1 cells that are engineered to stably express human CB2 receptor (the Flpin-CHO-CB2 cells) were cultured in the growth medium (Ham’s F12K + 10%FBS + 1×Ps + 800 ug/mL HB) at 37 °C and 5% CO2. The cells were then collected by centrifugation and resuspended in Hank’s balanced salt solution (HBSS), 0.1% bovine serum albumin (BSA), 20 mM N-(2-hydroxyethyl)-piperazine-N0-ethanesulfonic acid (HEPES), and 500 μM 3-isobutyl-1-methylxanthine (IBMX). The test compounds were serially diluted in DMSO at 2-fold dilutions of 10 concentrations ranging from 10,000 μM to 20 μM. The antagonistic activities were evaluated by assessing their ability to counteract the agonist (CP55940)-mediated decrease in cAMP accumulation. The accumulation of cAMP was determined by following the manufacturer’s instructions for a Perkin Elmer cAMP kit.

human CB1 receptor [3] = target: T2, human CB1 receptor (Homo sapiens, UniProt P21554); assay: cAMP functional assay against CB1 receptor; format: cell-based
T2 sequence (P21554 whole entry): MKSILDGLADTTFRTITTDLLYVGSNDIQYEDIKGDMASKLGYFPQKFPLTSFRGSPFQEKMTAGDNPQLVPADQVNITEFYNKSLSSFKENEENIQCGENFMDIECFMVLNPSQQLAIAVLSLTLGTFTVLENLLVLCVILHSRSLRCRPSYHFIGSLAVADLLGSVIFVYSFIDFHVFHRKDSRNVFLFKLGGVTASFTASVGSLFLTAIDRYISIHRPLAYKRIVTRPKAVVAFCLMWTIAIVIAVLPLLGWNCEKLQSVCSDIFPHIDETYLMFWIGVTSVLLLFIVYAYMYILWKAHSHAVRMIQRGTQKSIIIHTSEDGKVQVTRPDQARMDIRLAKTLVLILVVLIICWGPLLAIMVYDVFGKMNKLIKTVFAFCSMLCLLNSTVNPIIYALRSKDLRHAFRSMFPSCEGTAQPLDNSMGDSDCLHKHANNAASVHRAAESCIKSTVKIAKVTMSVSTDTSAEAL
Protocol: (§1) The binding and functional selectivity of the five compounds were tested by performing radioligand binding assays and cAMP functional assays against the CB1 receptor.

human CB1 receptor [4] = target: T2, human CB1 receptor; assay: Radioligand binding assays at human CB1 receptor; conditions: read-out: Binding affinities pKi (converted)
Protocol: as §1

[5] = human CB2 receptor, Flpin-CHO-CB2 cells, antagonism of CP55940, read-out: cAMP Assay pIC50 (converted)
[6] = CB1 receptor, cAMP functional assay, read-out: antagonistic activities against the CB1 receptor
[7] = human CB1 receptor, read-out: cAMP assay pIC50 (converted)

**Q.** With `O=C(Cn1c(=O)n(Cc2ccccc2)c(=O)c2sc3ccccc3c21)NC1CCCCC1` [Compound 4] as the compound, how does the Ki (human CB2 receptor [1]) read?
**A.** Its Ki is > 100 µM.

**Q.** For `CCOC(=O)c1c(NC(=O)C23CC4CC(CC(C4)C2)C3)sc2c1CCCC2` [CHEMBL3909238], which Ki (CB2 receptor) is on record?
**A.** Its Ki is 2.15 nM.

**Q.** With `O=C(CSc1nc2nccnc2c(=O)n1Cc1ccc2c(c1)OCO2)Nc1ccc(F)cc1` [Compound 5] as the compound, how does the Ki (human CB2 receptor [1]) read?
**A.** Its Ki is 38 µM.

**Q.** Which IC50 (human CB2 receptor [2]; [5]) does the source give for `COc1ccc(-n2c(=O)c3c4c(sc3n(Cc3ccc(F)cc3)c2=O)CN(C(C)=O)CC4)cc1` [Compound 6] here?
**A.** The IC50 was > 20 µM.

**Q.** And the Ki (human CB2 receptor [1])?
**A.** Its Ki is 7.08 µM.

**Q.** Which Ki (human CB2 receptor [1]) does the source give for `CC(=O)Nc1c2n(c3ccc(F)cc13)CC(C)(C(=O)NC1CCCC1)N(Cc1ccc(F)cc1)C2=O` (stereo not shown) [Compound 13] here?
**A.** The Ki was 33.1 µM.

**Q.** For `C[C@@H](NS(=O)(=O)C(F)(F)F)c1ccc(S(=O)(=O)c2ccoc2S(=O)(=O)c2ccccc2F)cc1` [CHEMBL1270480], which Ki (CB2 receptor) is on record?
**A.** Its Ki is 4.4 nM.

**Q.** Which results are given for `Cc1cccn2c(=O)c(/C=C3\SC(=S)N(Cc4ccco4)C3=O)c(NCC3CCCO3)nc12` (stereo not shown) [Compound 8]?
**A.** IC50 (human CB1 receptor [3]; [6]): > 20 µM; IC50 (human CB1 receptor [3]; [7]): > 20 µM; antagonistic activity towards the CB2 receptor in comparison to the CB1 receptor (selectivity) (human CB2 receptor [2]; cAMP functional assays, CB2 over CB1): more than 100 times; IC50 (human CB2 receptor [2]; [5]): 0.117 µM; Ki (human CB1 receptor [4]): 3.39 µM; Ki (human CB2 receptor [1]): 0.219 µM

**Q.** With `Cc1ccc(C)c(CNC(=O)c2cc(-c3cccs3)nn2Cc2ccc(F)cc2)c1` [Compound 14] as the compound, how does the Ki (human CB2 receptor [1]) read?
**A.** The Ki was 17.8 µM.

**Q.** With `NC(=O)c1nc(Nc2ccccc2)sc1NC(=O)C12CC3CC(CC(C3)C1)C2` [Compound 1] as the compound, how does the IC50 (human CB2 receptor [2]; [5]) read?
**A.** The IC50 was > 20 µM.

**Q.** What about the Ki (human CB2 receptor [1]) of the same compound?
**A.** Its Ki is 1.58 µM.

**Q.** Which Ki (human CB2 receptor [1]) does the source give for `COc1cc(C2CC(=O)Nc3c2c(=O)n(C)c(=O)n3C)ccc1OCc1cccc(F)c1` (stereo not shown) [Compound 2] here?
**A.** The Ki was > 100 µM.

**Q.** Which IC50 (human CB1 receptor [3]; cAMP assay pIC50, human CB1 receptor) does the source give for `O=C(NC1CCCCCC1)c1cc(-c2cccs2)nn1Cc1ccc(F)cc1` [Compound 15] here?
**A.** Its IC50 is 4.57 µM.

**Q.** What about the IC50 (human CB2 receptor [2]) of the same compound?
**A.** The IC50 was 2.82 µM.

**Q.** What about the Ki (human CB1 receptor [4]) of the same compound?
**A.** Its Ki is 25.7 µM.

**Q.** What about the Ki (human CB2 receptor [1]) of the same compound?
**A.** Its Ki is 1.74 µM.

**Q.** With `O=c1c2nccnc2nc(SCc2cccc(F)c2)n1Cc1cccs1` [Compound 12] as the compound, how does the IC50 (human CB1 receptor [3]; [6]) read?
**A.** The IC50 was > 20 µM.

**Q.** What about the IC50 (human CB2 receptor [2]; [5]) of the same compound?
**A.** The IC50 was 5.62 µM.

**Q.** And the Ki (human CB1 receptor [4])?
**A.** Its Ki is 38 µM.

**Q.** And the Ki (human CB2 receptor [1])?
**A.** The Ki was 3.55 µM.

**Q.** Which Ki (human CB2 receptor [1]) does the source give for `CN(C(=O)c1nn(C)c2c1COc1ccccc1-2)c1cccc(C(F)(F)F)c1` [Compound 11] here?
**A.** Its Ki is 13.8 µM.

**Q.** For `COCCn1c(C)c(C)sc1=NC(=O)C1C(C)(C)C1(C)C` [CHEMBL1668519], which Ki (CB2 receptor) is on record?
**A.** Its Ki is 0.64 nM.

**Q.** With `COc1cc(C(O)c2cccs2)cc(OC)c1-c1cc(Cl)cc(Cl)c1` (stereo not shown) [CHEMBL1076685] as the compound, how does the Ki (CB2 receptor) read?
**A.** The Ki was 0.2 nM.

**Q.** With `Cc1cc(S(=O)(=O)c2cc3cc(C(C)(C)C)cc(O)c3oc2=O)ccc1F` [Compound 9] as the compound, how does the Ki (human CB2 receptor [1]) read?
**A.** Its Ki is 23.4 µM.

**Q.** With `CC(=O)N1CCc2c(sc3c2c(=O)n(Cc2ccccc2)c(=O)n3Cc2c(F)cccc2Cl)C1` [Compound 7] as the compound, how does the IC50 (human CB1 receptor [3]; [7]) read?
**A.** Its IC50 is 7.08 µM.

**Q.** And the IC50 (human CB2 receptor [2]; [5])?
**A.** The IC50 was 3.47 µM.

**Q.** What about the Ki (human CB1 receptor [4]) of the same compound?
**A.** Its Ki is 16.6 µM.

**Q.** What about the Ki (human CB2 receptor [1]) of the same compound?
**A.** Its Ki is 6.61 µM.

**Q.** Which pKi (CB2 receptor) does the source give for `COc1ccc(C(=O)c2c(C)n(CCN3CCOCC3)c3cc(I)ccc23)cc1` [AM630] here?
**A.** The pKi was 7.5.

**Q.** Which Ki (CB2 receptor) does the source give for `CCCCCCC1(c2cc(O)c3c(c2)OC(C)(C)[C@@H]2CC=C(C)C[C@@H]32)CCCC1` [CHEMBL108868] here?
**A.** The Ki was 1.91 nM.

**Q.** With `COc1ccccc1Nc1sc(C(=O)c2ccccc2)c(N)c1S(=O)(=O)c1ccccc1` [Compound 3] as the compound, how does the IC50 (human CB1 receptor [3]; [6]) read?
**A.** The IC50 was > 20 µM.

**Q.** What about the IC50 (human CB2 receptor [2]; [5]) of the same compound?
**A.** The IC50 was 0.339 µM.

**Q.** And the Ki (human CB1 receptor [4])?
**A.** Its Ki is 18.6 µM.

**Q.** And the Ki (human CB2 receptor [1])?
**A.** The Ki was 4.9 µM.

**Q.** Which Ki (CB2 receptor) does the source give for `CCCCCn1cc(C(=O)NC23CC4CC(CC(C4)C2)C3)c(=O)c2cc(-c3ccc(O)cc3)ccc21` [CHEMBL1215918] here?
**A.** The Ki was 4.2 nM.

**Q.** With `CSC(=S)N1CC2(CCCCC2)CS/C1=N\c1cccc(C(C)C)c1` [CHEMBL231719] as the compound, how does the Ki (CB2 receptor) read?
**A.** Its Ki is 2.5 nM.

**Q.** Which Ki (human CB2 receptor [1]) does the source give for `CCCCNC(=O)Cn1c(=O)n(-c2cccc(C(F)(F)F)c2)c(=O)c2sccc21` [Compound 10] here?
**A.** The Ki was 17.8 µM.

**Q.** For SR144528, which pKi (CB2 receptor) is on record?
**A.** The pKi was 8.3–9.2.
